Measurements published in publication PMC11381239, “Endocannabinoid regulation of inward rectifier potassium (Kir) channels” (Frontiers in Pharmacology, 2024).
Substitutions are numbered along the chain they refer to. Like-named read-outs stand apart in the source and are kept apart here.

Assays:
Test in all cases: two-electrode voltage clamp, slope conductance Gmax
Assay type in all cases: cell-based
Kir2.1 = molecular target: T1, Kir2.1 (Homo sapiens, UniProt P63252); conditions: for Emax (%): maximal increase in Gmax, vehicle (ethanol) control in same table
T1 construct: gene KCNJ2; full-length human Kir2.1 cDNA in pcDNA3.1, RNA expressed in Xenopus laevis oocytes; homotetramer
T1 sequence (P63252 1-427): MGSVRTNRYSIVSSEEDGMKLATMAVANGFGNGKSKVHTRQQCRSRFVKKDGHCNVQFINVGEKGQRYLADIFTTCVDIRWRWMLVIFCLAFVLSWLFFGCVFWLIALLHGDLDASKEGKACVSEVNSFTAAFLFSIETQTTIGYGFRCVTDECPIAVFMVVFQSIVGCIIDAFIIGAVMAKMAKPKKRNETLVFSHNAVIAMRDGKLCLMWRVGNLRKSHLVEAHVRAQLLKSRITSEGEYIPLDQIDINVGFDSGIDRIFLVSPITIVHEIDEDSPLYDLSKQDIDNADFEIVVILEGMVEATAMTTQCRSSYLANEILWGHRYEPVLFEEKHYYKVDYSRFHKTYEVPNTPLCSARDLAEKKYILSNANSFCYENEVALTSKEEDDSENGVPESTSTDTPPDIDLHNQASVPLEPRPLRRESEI
Source text: two-electrode voltage clamp, slope conductance Gmax on Kir2.1

WT:G144S Kir2.1 = molecular target: T2, WT:G144S Kir2.1 (Homo sapiens, UniProt P63252, G144S)
T2 construct: gene KCNJ2; WT Kir2.1 co-expressed 1:1 with LQT7 mutant G144S Kir2.1 in Xenopus laevis oocytes; mixed tetramers, exact subunit stoichiometry not fixed
T2 sequence (P63252 1-427): T1 sequence (P63252 1-427)
T2 sequence (P63252 1-427 G144S): T1 sequence (P63252 1-427) with G144S

Kir4.1 = molecular target: T3, Kir4.1 (Rattus norvegicus, UniProt P49655)
T3 construct: gene Kcnj10; full-length rat Kir4.1 cDNA in pcDNA3.1, RNA expressed in Xenopus laevis oocytes; homotetramer
T3 sequence (P49655 1-379): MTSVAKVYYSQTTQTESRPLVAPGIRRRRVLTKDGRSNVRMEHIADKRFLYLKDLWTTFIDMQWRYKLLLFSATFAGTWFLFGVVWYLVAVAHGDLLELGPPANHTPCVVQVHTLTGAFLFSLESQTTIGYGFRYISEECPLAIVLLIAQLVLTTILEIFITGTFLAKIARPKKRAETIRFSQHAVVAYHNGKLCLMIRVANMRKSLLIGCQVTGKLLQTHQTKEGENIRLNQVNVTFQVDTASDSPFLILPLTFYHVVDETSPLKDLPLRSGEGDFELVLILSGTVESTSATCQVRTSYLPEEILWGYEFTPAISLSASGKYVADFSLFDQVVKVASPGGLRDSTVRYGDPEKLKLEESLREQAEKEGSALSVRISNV
Source text: two-electrode voltage clamp, slope conductance Gmax on Kir4.1

[1] = 89 mM KCl bath, pH 7.4, room temperature

CCCCC/C=C\C/C=C\C/C=C\C/C=C\CCCC(=O)OCC(O)CO (stereo not drawn) [1-AG]
EC50 (Kir2.1): 20 ± 0.9 µM

CCCCC/C=C\C/C=C\C/C=C\C/C=C\CCCC(=O)OC(CO)CO [2-AG]
EC50 (Kir2.1): 25.5 ± 1.1 µM

CCCCC/C=C\C/C=C\CCCCCCCC(=O)OC(CO)CO [2-LG]
Emax (%) (Kir2.1; [1]): 5.4 ± 0.3%

CCCCCCCCCCCCCCCC(=O)OC(CO)CO [2-PG]
EC50 (WT:G144S Kir2.1): 11.7 ± 1 µM | EC50 (Kir2.1): 12.7 ± 2 µM | EC50 (Kir4.1): 12.4 ± 0.7 µM

CCCCC/C=C\C/C=C\C/C=C\C/C=C\CCCC(=O)NCCO [AEA]
Emax (%) (Kir2.1; [1]): 5.3 ± 1.3%

CCCCC/C=C\C/C=C\C/C=C\C/C=C\CCCC(=O)N[C@@H](CO)C(=O)O [AS]
Emax (%) (Kir2.1; [1]): 1.0 ± 0.1%

CCCCCCCCCCCCCCCCCCCC(=O)NCCO [ArEA]
EC50 (WT:G144S Kir2.1): 30.7 ± 3.4 µM | EC50 (Kir2.1): 12.6 ± 4.1 µM | EC50 (Kir4.1): 4.5 ± 3.9 µM

CCCCC/C=C\C/C=C\C/C=C\C/C=C\CCCCCC(=O)NCCO [DEA]
EC50 (Kir2.1): 32 ± 3.9 µM

CCCCC/C=C\C/C=C\CCCCCCCC(=O)NCCO [LEA]
EC50 (Kir2.1): 29 ± 1 µM

CCCCC/C=C\C/C=C\C/C=C\C/C=C\CCCC(=O)NCC(=O)O [NAGly]
EC50 (Kir2.1): 27.7 ± 2.8 µM

CCCCCCCC/C=C\CCCCCCCCCCCCCC(=O)NCCO [NEA]
EC50 (Kir2.1): 23.3 ± 2.1 µM

CCCCCCCC/C=C\CCCCCCCC(=O)NCCO [OEA]
EC50 (Kir2.1): 9.2 ± 0.9 µM

CCCCCC/C=C\CCCCCCCC(=O)NCCO [POEA]
EC50 (Kir2.1): 9.3 ± 0.7 µM

CCCCCCCCCCCCCCCCCC(=O)NCCO [SEA]
EC50 (Kir2.1): 10.2 ± 4.9 µM

CC/C=C\C/C=C\C/C=C\CCCCCCCC(=O)NCCO [αLnEA]
EC50 (Kir2.1): 24.5 ± 4.2 µM

CCCCC/C=C\C/C=C\C/C=C\CCCCC(=O)NCCO [ϒLnEA]
EC50 (Kir2.1): 36.8 ± 3.8 µM

oxy-AEA
EC50 (Kir2.1; activation, 89 mM KCl bath, pH 7.4, room temperature, mode: indirect via membrane according to authors): 25.3 ± 1.1 µM
